Target: T1, prolectin (Homo sapiens, UniProt Q6ZS10)
T1 sequence (Q6ZS10 194-378 limits assumed): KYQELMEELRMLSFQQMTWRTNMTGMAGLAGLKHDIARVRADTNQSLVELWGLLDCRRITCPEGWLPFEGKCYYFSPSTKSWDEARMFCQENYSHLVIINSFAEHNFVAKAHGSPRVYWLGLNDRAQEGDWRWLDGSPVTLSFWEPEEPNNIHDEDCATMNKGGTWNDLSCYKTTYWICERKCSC
Assay: solid-phase competition binding, […]-Man-BSA reporter
Details: competitive; immobilised extracellular domain; Ca2+-dependent site

| Relative KI | SMILES |
| --- | --- |
| 1.2 ± 0.1 relative to KI of αMe-Man | OC[C@H]1OC(O)[C@@H](O)[C@@H](O)[C@@H]1O (stereo partly shown) [Man] |
| 1.2 ± 0.1 relative to KI of αMe-Man | CC(=O)N[C@H]1C(O)O[C@H](CO)[C@@H](O)[C@@H]1O (stereo partly shown) [GlcNAc] |
| 0.72 ± 0.08 relative to KI of αMe-Man | CC(=O)N[C@H]1C(O)O[C@H](CO)[C@@H](O[C@@H]2O[C@H](CO)[C@H](O)[C@H](O)[C@H]2O)[C@@H]1O[C@@H]1O[C@@H](C)[C@@H](O)[C@@H](O)[C@@H]1O (stereo partly shown) [Le^x] |
| 0.22 ± 0.01 relative to KI of αMe-Man | CC(=O)N[C@H]1C(O)O[C@H](CO)[C@@H](O[C@@H]2O[C@@H](C)[C@@H](O)[C@@H](O)[C@@H]2O)[C@@H]1O[C@@H]1O[C@H](CO)[C@H](O)[C@H](O)[C@H]1O (stereo partly shown) [Le^a] |
| > 30 relative to KI of αMe-Man | CO[C@H]1O[C@H](CO)[C@H](O)[C@H](O)[C@H]1O [αMe-Gal] |
| 3.2 ± 0.1 relative to KI of αMe-Man | CO[C@H]1O[C@H](CO)[C@@H](O)[C@H](O)[C@H]1O [αMe-Glc] |
| 1.1 ± 0.1 relative to KI of αMe-Man | C[C@@H]1OC(O)[C@@H](O)[C@H](O)[C@@H]1O (stereo partly shown) [Fuc] |
